Laboratory results published in US8569229B2, “Compositions and methods which modulate G-protein signaling for the treatment of inflammatory disorders such as asthma and allergic conjunctivitis” (The Children's Hospital of Philadelphia, priority 2008, dated 2013).
Where “and” joins values, the source holds several entries; their conditions need not be identical. Equal values may be shown once. Entries after “also recorded” stand apart in the source; their conditions may differ. Read-outs that look alike come from different tables or passages of the source. Ends that are not written are not given here.

How the values were obtained:
[1] = test system: PDE4D5 mRNA; assay: Detection of PDE4D5 mRNA transcripts by RT-PCR in ASM cells; type: cell-based, human
Text: (§1) Detection of PDE4D5 mRNA transcripts: Total RNA was extracted from the cultured ASM cells using the TRIzol method (Invitrogen), and cDNAs were isolated by RT-PCR using the SuperScript First Strand Synthesis System kit from Invitrogen, with the following oligonucleotide primer sets (Integrated DNA Technologies): for PDE4D5, 5′-[…]-3′ (forward; SEQ ID NO: 2) and 5′-[…]-3′ (reverse; SEQ ID NO: 3); and for β-actin, 5′-[…]-3′ (forward; SEQ ID NO: 4) and 5′-[…]-3′ (reverse; SEQ ID NO: 5). The reaction volume was 20 μl and cycling conditions used were 35 cycles of 30 sec denaturation at 95° C., followed by 30 sec annealing at 60° C. and elongation at 72° C. for 30 sec. Ex-Tag (Takara Biotechnology) was used as DNA polymerase. […] Following protein extraction and the addition of gel-loading buffer, the extracts were loaded on a 10% SDS-PAGE gel for immunoblotting after transfer to a PVDF membrane. The membranes were then incubated overnight with monoclonal mouse anti-human primary antibodies directed against phospho-CREB and -ATF1, phospho-ERK1/2, or α-actin, and levels were detected by ECL after a 1-hr incubation with a 1:2,000 dilution of HRP-conjugated rabbit anti-mouse secondary antibody, followed by exposure to autoradiography film. The protein band intensities were quantified by densitometry. siRNA-mediated knockdown of PKA: ASM cells were seeded into 6-well plates and, at ˜40% confluency, the medium was replaced with the reduced serum-containing medium, Opti-MEM (Invitrogen). The cells were then transfected twice during a 24-hr interval with two pools of three siRNA duplexes, each pool targeted against the human PKAα or PKAγ catalytic subunits (Santa Cruz Biotechnology; sc-36240 and sc-36236, respectively), or with a non-targeted control (scrambled) siRNA duplex, using Oligofectamine (Invitrogen) as the transfection agent. The pools of siRNAs were applied to each well at a final concentration of 100 nM for each siRNA preparation. […] Transfection of ASM cells with adeno-βARK-ct: Adenovirus (adeno)-βARK-ct, an adenovirus vector encoding the βARK1 carboxyl-terminal domain which blocks Gβγ signaling (25,26), and adeno-β-gal, an adenovirus vector expressing lacZ as a negative control, were constructed using the AdenoX adenovirus construction kit (BD-Clontech). Recombinant plaques were isolated and propagated in HEK293 cells (Invitrogen), with viral purification using the cesium chloride gradient method, and viral titer detected by plaque assay. The ASM cells were transfected with either of the adenoviral vectors at a multiplicity of infection (MOI) of 100, and experiments were conducted at 24 hr following adenoviral tranfections. Pharmacodynamic studies of constrictor and relaxation responsiveness in rabbit ASM tissues: Following initial sedation and subsequent general anesthesia with intramuscular injections of xylazine (10 mg/kg) and ketamine (50 mg/kg), respectively, rabbits were sacrificed with an intravenously administered overdose of sodium pentobarbital (100 mg/kg). As described previously (16), the tracheae were excised via open thoracotomy, the loose connective tissue and epithelium were scraped and removed, and the tracheae were divided into 8 ring segments, each of 6-8 mm in length. […] After these incubations, the tissues were placed in organ baths containing modified Krebs-Ringer solution aerated with 5% CO2 in oxygen (pH of 7.35-7.40), and attached to force transducers to continuously monitor isometric tension. […] The constrictor and relaxation dose-response curves were analyzed with respect to each tissue's maximal isometric contractile force (Tmax) to ACh and maximal relaxation response (Rmax) to isoproterenol from the initial level of active cholinergic contraction. Statistical analyses: Results are expressed as mean±SE values. Comparisons between groups were made using the Student's t-test (two-tailed) or ANOVA with Tukey's post-test analysis, where appropriate.

[2] = test system: human ASM cells; assay: Assay of cAMP PDE activity in ASM cell lysates; type: cell-based; conditions: for effect of pretreatment on PGE2-induced increase in PDE activity: PGE2 100 nM x 24 hr, peptides 30 μM (Example III)
[3] = test system: ERK1/2; assay: Immunoblot analysis of ERK1/2 phosphorylation in ASM cells; type: cell-based, human
Text: as §1

[4] = test system: CREB/ATF1; assay: Immunoblot analysis of CREB/ATF1 phosphorylation in ASM cells; type: cell-based, human
Text: as §1

[5] = test system: rabbit ASM tissues; assay: Constrictor responsiveness to acetylcholine (ACh) in isolated rabbit ASM tissues, isometric tension in organ bath
Text: as §1

[6] = test system: rabbit ASM tissues; assay: Relaxation responsiveness to isoproterenol in isolated rabbit ASM tissues half-maximally contracted with ACh
Text: as §1

[7] = test system: human ASM cells; assay: Assay of cAMP PDE activity in ASM cell lysates; type: cell-based
Experimental: Assay of cAMP PDE activity: Levels of cAMP PDE activity were assayed in ASM cell lysates using a colorimetric, non-radioactive enzymatic assay kit from Biomol, as per the manufacture's protocol. PDE activity was determined following exposure of ASM cells for 24 hr to either vehicle alone (control), PGE2 (100 μM), or forskolin (100 μM) in the absence and presence of pretreatment with rolipram (10 μM), cycloheximide (100 μM), actinomycin D (4 μM), or H89 (10 μM).
In each case, the measured levels of PDE activity were standardized to the protein content in the cell extracts.

[8] = vehicle-exposed control tissues
[9] = PGE2 or forskolin x 24 hr (100 μM in text, 100 nM in legends)
[10] = salmeterol or isoproterenol 10 μM x 24 hr
[11] = PGE2 100 nM, isoproterenol 10 μM

Oc1c2ccccc2c2c3c(cccc13)N=N2 [SP600125]
effect of pretreatment on β2AR agonist (isoproterenol)-induced upregulated PDE4D5 mRNA expression ([1]; isoproterenol 10 μM, 6 hr): no effect

MPS- Gαi2 (AAVALLPAVLLALLAKNNLKDCGLF; also: MPS attached) [Gαi2 blocking peptide]
effect of pretreatment on PGE2-induced increase in PDE activity [2]: only a partial inhibitory effect | effect of pretreatment on PGE2-induced increase in PDE activity ([2]; listed as anti-Gαi2 inhibitory peptide): only exerts a partial inhibitory effect

pertussis toxin [PTX]
effect of pretreatment on PGE2-induced upregulated PDE4D5 mRNA expression ([1]; PGE2 100 nM, 6 hr): markedly inhibited; also recorded: ablated | effect of pretreatment on β2AR agonist (isoproterenol)-induced upregulated PDE4D5 mRNA expression ([1]; isoproterenol 10 μM, 6 hr): prevented; also recorded: ablated | effect on PGE2-induced phosphorylation of ERK1/2 ([3]; PGE2 100 nM, 30 min): largely prevented; also recorded: ablated | effect on PGE2-induced phosphorylation of CREB/ATF1 ([4]; PGE2 100 nM, 30 min): largely prevented; also recorded: ablated | effect of pretreatment on PGE2-induced increase in constrictor responsiveness to ACh ([5]; PGE2 100 nM x 24 hr): abrogated | effect of the agent alone on constrictor responses to ACh [5, 8]: no significant effect | effect of pretreatment on PGE2-induced impaired relaxation to isoproterenol ([6]; PGE2 100 nM x 24 hr): abrogated | effect of the agent alone on relaxation responses to isoproterenol [6, 8]: no significant effect | effect of pretreatment on PGE2-induced increase in PDE activity [2]: completely ablated | effect of pretreatment on PGE2- and forskolin-induced increases in PDE activity [2, 9]: completely ablated | effect of pretreatment on salmeterol- and isoproterenol-induced increase in PDE activity [2, 10]: completely abrogated; also recorded: ablated

CC(C)NCC(O)c1ccc(O)c(O)c1 (stereo not shown) [isoproterenol]
time of peak PDE4D5 mRNA induction ([1]; PGE2 100 nM, salmeterol or isoproterenol 10 μM): 6 h | peak PDE4D5 mRNA expression, fold above unstimulated cells ([1]; densitometric analysis, 3 experiments, PGE2 100 nM, salmeterol or isoproterenol 10 μM): 5.7 fold | time of peak ERK1/2 phosphorylation ([3]; PGE2 100 nM, isoproterenol or salmeterol 10 μM): 20 min | ERK1/2 phosphorylation in cells treated with the agent ([3]; PGE2 or forskolin 100 nM, isoproterenol or salmeterol 10 μM): increased phosphorylation of ERK1/2; also recorded: enhanced ERK1/2 phosphorylation | increase in ERK1/2 phosphorylation, fold above control (vehicle-treated) cells ([3]; densitometric ratios, mean±SE, PGE2 30 min, isoproterenol 20 min): 2.30±0.18 fold and 2.3 fold | phosphorylation of CREB and ATF1 in cells treated with the agent [4, 11]: transiently increased phosphorylation | time of peak CREB/ATF1 phosphorylation [4, 11]: 30 min | cAMP PDE (PDE4) activity relative to vehicle-treated control cells ([7]; cells exposed 24 hr to the agent): significantly increased | PDE activity, fold above control ([7]; cells incubated 24 hr with the agent (PGE2 or forskolin 100 μM; salmeterol or isoproterenol 10 μM)): ~2 fold

N#CC(=C(/N)Sc1ccccc1N)/C(C#N)=C(\N)Sc1ccccc1N [U0126]
effect of pretreatment on PGE2-induced upregulated PDE4D5 mRNA expression [1]: largely prevented; also recorded: ablated | effect of pretreatment on β2AR agonist (isoproterenol)-induced upregulated PDE4D5 mRNA expression [1]: largely prevented; also recorded: ablated | effect on PGE2-induced phosphorylation of ERK1/2 [3]: completely abrogated; also recorded: ablated | effect on isoproterenol (β2AR agonist)-induced phosphorylation of ERK1/2 [3]: ablated | effect on PGE2-induced phosphorylation of CREB/ATF1 [4]: abrogated; also recorded: ablated | effect of pretreatment on PGE2-induced increase in constrictor responsiveness to ACh [5]: abrogated | effect of pretreatment on salmeterol-induced increase in constrictor responsiveness to ACh [5]: completely abrogated; also recorded: prevents | effect of the agent alone on constrictor responses to ACh [5]: no significant effect; also recorded: did not exhibit any significant changes | effect of pretreatment on PGE2-induced impaired relaxation to isoproterenol [6]: abrogated | effect of pretreatment on salmeterol-induced impaired relaxation to isoproterenol [6]: completely ablated; also recorded: prevents | effect of the agent alone on relaxation responses to isoproterenol [6]: no significant effect; also recorded: did not exhibit any significant changes | effect of pretreatment on PGE2- and forskolin-induced increases in PDE activity [2]: completely ablated | effect of pretreatment on salmeterol- and isoproterenol-induced increase in PDE activity [2]: prevented; also recorded: ablated | effect of the agent alone on basal PDE activity [2]: neither H89 nor U0126 alone had a significant effect

C[C@@H]1C[C@@H]([C@H](O)CC2CC(=O)NC(=O)C2)C(=O)[C@@H](C)C1 [cycloheximide]
effect of pretreatment on PGE2- and forskolin-induced increases in PDE activity [2, 9]: completely ablated | effect of pretreatment on salmeterol- and isoproterenol-induced increase in PDE activity [2, 10]: completely ablated | effect of the agent alone on basal PDE activity ([7]; no cAMP-elevating agent): neither actinomycin D nor cycloheximide alone significantly affected
